Test results reported in patent publication US7052834B1, “Tumor suppressor protein involved in death signaling, and diagnostics, therapeutics, and screening based on this protein” (St. Jude Children's Research Hospital, priority 1998, dated 2006).
Each block holds one compound with its values, some of them ahead of it. Peptide text beside a SMILES is read from it. * marks the point of attachment. Cbz = O=C(OCc1ccccc1)*; CH2F = FC*

How the values were obtained:
TNFR p55 (human) = TNFR p55 (human) (UniProt P19438); assay: cell-based or functional assay
Chain of TNFR p55 (human) (P19438 30-455): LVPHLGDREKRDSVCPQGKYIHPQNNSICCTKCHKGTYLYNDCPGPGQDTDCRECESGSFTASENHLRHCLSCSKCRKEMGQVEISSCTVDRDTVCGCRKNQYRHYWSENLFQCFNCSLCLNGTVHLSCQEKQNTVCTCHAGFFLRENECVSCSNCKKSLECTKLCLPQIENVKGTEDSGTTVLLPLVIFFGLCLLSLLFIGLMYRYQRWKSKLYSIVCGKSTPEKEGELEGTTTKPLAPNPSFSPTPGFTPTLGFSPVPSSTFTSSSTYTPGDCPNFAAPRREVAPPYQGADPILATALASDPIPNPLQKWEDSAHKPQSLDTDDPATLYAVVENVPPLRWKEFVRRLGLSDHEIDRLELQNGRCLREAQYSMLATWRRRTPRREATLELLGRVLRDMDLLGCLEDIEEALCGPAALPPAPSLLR

NB3 = assay: Doxorubicin-induced apoptosis (TUNEL); format: cell-based, human; conditions: 0.1 mM doxorubicin for 48 hrs, percentage of cell death by TUNEL
NB5 = assay: Doxorubicin-induced apoptosis (TUNEL); format: cell-based, human; conditions: 0.1 mM doxorubicin for 48 hrs, percentage of cell death by TUNEL
NB7 = assay: Doxorubicin-induced apoptosis (TUNEL); format: cell-based, human
Description: (§1) In order to determine whether exogenous expression of caspase-8 resensitized caspase-8 null NB cells to chemotherapeutic agents, NB7 cells and NB7 cells transduced with pMSCV-Casp8(wt) were treated with doxorubicin. Doxorubicin-induced neuroblastoma apoptosis has previously been linked to the Fas receptor pathway (Fulda et al., Cancer Res., 1997, 57:3823–3829). The NB7 cell line was chosen since it lacks a functional CASP8 gene (FIGS. 4 and 5, Table 2).

NB8 [1] = assay: Doxorubicin-induced apoptosis (TUNEL); format: cell-based, human; conditions: 0.1 mM doxorubicin for 48 hrs
NB cell lines = assay: Sensitivity of NB cell lines to doxorubicin-induced apoptosis; format: cell-based, human
Description: as §1

NB10 [2] = assay: Fas mAb-induced apoptosis in cells with programmed caspase-8 expression; format: cell-based, human; conditions: zVAD-fmk added prior to programmed expression of caspase-8
Description: (§2) FIGS. 8A, 8B, 8C, 8D, and 8E. Effects of retrovirus expression of caspase-8 in three different NB cell lines that are caspase-8 nulls. […] The caspase-8(DN) product migrates at a higher molecular weight due to an HA-tag attached to its carboxyl-terminus. B, C:Morphology of NB7/Casp8 cells 5 hours after treatment with TNFα and cycloheximide. Membrane blebbing (Nomarski view, B) and condensed chromatin (visualized by DAPI staining, C), characteristics of apoptotic cells, are clearly visible. D:Percentage of cells that are positive for cell surface annexin-V staining, another hallmark of apoptotic cells. The various cell lines and their treatment regimens are shown at the bottom. E: Apoptotic induction by Fas mAb in proliferating NB8 and NB10 cells stably expressing caspase-8 at a low level. Induction measured as percentage of cells that are TUNEL-positive. The various cell lines and their treatment regimens are shown at the bottom.
(§3) Apoptotic assays. Cells were collected for annexin V-FITC staining and FACS analysis after the culture media containing zVAD-fmk was removed and replaced with normal culture medium for 6 hours in NB8 and NB 10. […] Viable cells were determined by light and immunofluorescent microscopy after removal of the zVAD-fmk containing culture medium and incubation at 37° C. for 0.5, 1, 2, 4 and 6 hrs for the pMSCV-Casp 8(wt) and DN transduced NB8 and NB10 cells. […]

NB8 [3] = assay: as above; format: cell-based, human; conditions: zVAD-fmk added prior to programmed expression of caspase-8
Description: as §2, §3

NB10 [4] = assay: 5-aza-cytidine treatment: caspase-8 western blot and apoptosis; format: cell-based, human
Description: (§4) Caspase-8 western blot analysis of cell lysates from the NB8, NB10, and NB14 cell lines with (+) or without (−) 5-aza-2′-deoxycytidine. […] We therefore examined DNA methylation of CASP8 regulatory sequences as an alternative mechanism through which expression could be silenced, as documented for several tumor suppressor genes, such as INK4a, CDKN1, CDKN2, PTEN, MLH1, von Hippel-Lindau, and E-cadherin (Baylin et al., Adv. Cancer Res., 1998, 72:141–196; Belinsky et al., Proc. Natl. Acad. Sci. USA, 1998, 95:11891; Whang et al., Proc.Natl.Acad.Sci.USA,1998, 95:5246–5250; Merlo et al., Nature Medicine, 1995, 1:686–692).
(§5) The role of methylation of CASP8 regulatory sequences was tested by treating NB cells with 5-aza-cytidine, a compound that promotes the demethylation of CpG dinucleotides (Merlo et al., Nature Medicine, 1995, 1:686–692). When cells were treated with 10–50 μM 5-aza-cytidine for 2–3 days, caspase-8 expression was activated in the NB8 and NB11 cell lines, but not NB14 (FIG. 6A).

NB14 = assay: as above; format: cell-based, human; conditions: after 10–50 μM for 2–3 days
Description: as §4, §5

NB8 [5] = assay: as above; format: cell-based, human
Description: as §4, §5

NB11 = assay: 5-aza-cytidine treatment: caspase-8 western blot; format: cell-based, human; conditions: 10–50 μM for 2–3 days
Description: as §4, §5

neuroblastoma cell lines = assay: Apoptosis after re-establishing caspase-8 expression; format: cell-based, human; conditions: cell lines not expressing caspase-8
Description: The present invention is based, in part, on the surprising discovery that CASP8 is functionally inactivated in greater than 90% of all MYCN amplified neuroblastoma cell lines analyzed. Neuroblastoma is a pediatric solid tumor, and those cases with MYCN amplification have a particularly poor prognosis. […] This discovery is significant in oncology, because cells in which caspase-8 is not expressed are not capable of undergoing apoptosis mediated by death receptors such as Fas and DR3.

apoptosis of NB7 cells lacking caspase-8, five hours after TNF-α/CHX treatment (annexin-V staining) (TNFR p55 (human)): 5%
apoptosis of NB7 cells transduced with pMSCV-Casp8(wt), five hours after TNF-α/CHX treatment (DAPI, annexin-V staining) (TNFR p55 (human)): 40%
Compound: TNF-α (ligand)

Compound: COc1cccc2c1C(=O)c1c(O)c3c(c(O)c1C2=O)C[C@@](O)(C(=O)CO)C[C@@H]3O[C@H]1C[C@H](N)[C@H](O)[C@H](C)O1 [Doxorubicin, doxorubicin]
Doxorubicin-induced Apoptosis (NB3): 52 +/− 4%
Doxorubicin-induced Apoptosis (NB5): 54 +/− 4.6%
Doxorubicin-induced Apoptosis (+caspase-8) (NB7; NB7 +caspase-8, 0.1 mM doxorubicin for 48 hrs, TUNEL): 42 +/− 2.6%
Doxorubicin-induced Apoptosis (NB7; NB7, 0.1 mM doxorubicin for 48 hrs, percentage of cell death by TUNEL): 24 +/− 3%
increase in the level of cell death (NB7; NB7 cells expressing functional caspase-8 vs parental/pMSCV/pMSCV-Casp8(DN), low levels of doxorubicin): 70–100%
apoptosis after exposure to low levels of doxorubicin (NB7; parental NB7 cells and those transduced with pMSCV or pMSCV-Casp8(DN)): very limited apoptosis
Doxorubicin-induced Apoptosis (+caspase-8) (NB8 [1]; NB8 +caspase-8, TUNEL): 38 +/− 2%
Doxorubicin-induced Apoptosis (NB8 [1]; NB8, percentage of cell death by TUNEL): 18 +/− 2.6%
sensitization to doxorubicin-induced apoptosis (NB cell lines; NB cell lines (e.g., NB16 and NB21) expressing caspase-8): more sensitized
sensitization to doxorubicin-induced apoptosis (NB cell lines; cell lines that do not express caspase-8, regardless of Fas/CD95 status): not sensitized

Compound: COC(=O)C[C@H](NC(=O)[C@H](C)NC(=O)[C@@H](NC(=O)OCc1ccccc1)C(C)C)C(=O)CF [zVAD-fmk] (Cbz-Val-Ala-Asp(OMe)-CH2F)
apoptosis induced by agonistic Fas mAb (NB10 [2]): blocked
apoptosis induced by agonistic Fas mAb (NB8 [3]): blocked

Compound: Nc1ncn([C@@H]2O[C@H](CO)[C@@H](O)[C@H]2O)c(=O)n1 [5-aza-cytidine]
caspase-8 expression (NB10 [4]; FIG. 6A): results in the expression of caspase-8
spontaneous apoptosis (NB10 [4]; after 10–50 μM for 2–3 days): underwent spontaneous apoptosis
spontaneous apoptosis (NB14): not
caspase-8 expression (NB8 [5]; 10–50 μM for 2–3 days): activated
spontaneous apoptosis (NB8 [5]; after 10–50 μM for 2–3 days): underwent spontaneous apoptosis
caspase-8 expression (NB11): activated
apoptosis when caspase-8 expression is re-established (neuroblastoma cell lines): undergo apoptosis
